{
  "source": "patent US7256202B2",
  "about": "“Composition and method for treatment of hepatic encephalopathy” (priority 2003, dated 2007)",
  "tested_on": "patient with hepatic encephalopathy",
  "experiment": "Case report: patient with cryptogenic cirrhosis and hepatic encephalopathy treated with lactulose, then PEG 3350/lactulose",
  "assay_type": "in vivo, human",
  "description": "The patient is a person with cryptogenic cirrhosis, a type of cirrhosis which has unknown etiology. They have had extensive workups for chronic anemia in one of the major California hospitals and was placed on neomycin, Lasix, iron sulfate, lactulose, and Prevacid; they also were on a restricted protein diet to reduce ammonia production. They had intermittent episodes of hepatic encephalopathy during their hospitalization. The patient's hemoglobin slowly drops and they require transfusions periodically because of portal gastropathy. […] Although the therapeutic range is three to four bowel movements per day, it is very difficult for them to get to that range because of these effects.\nThe patient has required several hospitalizations for lethargy, declines in hemoglobin, and hepatic encephalopathy. They have intermittent episodes of abdominal discomfort and mild irritation of various small bowel loops.\nThe platelet count is in the range of 57,000. The lowest level of ammonia has been 30 micromoles/L and several levels have been 80 to 90 micromoles/L with the patient taking the lactulose.\nThe patient has had three hospitalizations for hepatic encephalopathy and anemia, mostly resulting from poor compliance. The patient's last hospitalization was July 22nd. Four months later, the patient presented us with hepatic encephalopathy and bedsores.\nThey were switched to 17 g MiraLax® (PEG 3350 powder) combined with 10 g of lactulose dissolved in water and given twice a day. The patient's ammonia level is now in the 70 to 75-range of micromoles/L and holding fairly steady on a maintenance dosage of this composition once per day.\nThey have achieved clinical and therapeutic levels of ammonia levels, and is oriented to time and place, with no clinical signs of hepatic encephalopathy on physical examination.",
  "key": {"[1]": {"settings": "lactulose up to three to four times a day"}},
  "data": [
    {"smiles": "OC[C@H]1O[C@@H](O[C@@H]2[C@@H](CO)OC(O)(CO)[C@H]2O)[C@H](O)[C@@H](O)[C@H]1O", "note": "(mixture of isomers) [lactulose]", "values": [
      {"measurement": "bowel movements per day", "setting": "[1]", "result": "three to four to five"},
      {"measurement": "side effects with the drug", "setting": "[1]", "result": "nausea, abdominal discomfort, and bloating sensation"},
      {"measurement": "lowest level of ammonia", "setting": "patient taking the lactulose", "result": 30, "unit": "µmol/L"}
    ]}
  ]
}
